According to patent publication US20240287078A1, “QUINAZOLINE DERIVATIVES USEFUL AS RAS INHIBITORS” (Redx Pharma PLC, priority 2021, published 2024):

Columns and labels:
Type in all cases: biochemical
[1] = biological target: T1, KRAS G12A (Homo sapiens, UniProt P01116, G12A); assay: HTRF nucleotide exchange assay (NEA), KRAS G12A; settings: recombinant human KRAS aa1-188 G12A, 4 nM; 60 min compound incubation, EDA-GTP-DY647P1
T1 construct: 4 nM KRAS; aa1-188 containing the G12V, G12C, G12A or G12S amino acid substitution
T1 sequence (P01116 1-188 isoform P01116-2 G12A): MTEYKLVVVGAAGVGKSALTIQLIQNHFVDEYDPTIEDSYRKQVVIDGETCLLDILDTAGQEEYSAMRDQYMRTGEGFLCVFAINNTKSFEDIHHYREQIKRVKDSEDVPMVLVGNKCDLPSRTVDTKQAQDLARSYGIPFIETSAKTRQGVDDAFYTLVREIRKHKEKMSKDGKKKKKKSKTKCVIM
Method: (§1) HTRF Nucleotide Exchange Assay Method
(§2) The capacity of compounds to bind KRAS G12D, other KRAS mutants and wildtype RAS isoforms was quantified using a HTRF nucleotide exchange assay. Recombinant human RAS protein (2 nM; aa1-188 KRAS WT, HRAS WT, NRAS WT, or KRAS containing the containing the G12D, G13D or Q61H amino acid substitutions, or 4 nM KRAS; aa1-188 containing the G12V, G12C, G12A or G12S amino acid substitution, an N-terminal 6×His-tag and leader sequence), and 2 nM Europium-labeled anti-6×His antibody were mixed in assay buffer (10 mM HEPES pH7.3, 150 mM NaCl, 5 mM MgCl2, 0.05% BSA, 0.0025% NP-40 and 100 mM KF) with various concentrations of compound in a 384-well plate and a volume of 5 uL. After a 60-minute incubation at room temperature, Sul of 200 nM EDA-GTP-DY647P1 (diluted in assay buffer) was added to the plate. Following 30-minute incubation at room temperature, time-resolved fluorescence was measured on a PerkinElmer Envision plate reader. DMSO (0.3%) and unlabeled GDP (1 μM) or equivalent tool compound were used to generate the Max and Min assay signals, respectively. Data was analysed using a four-parameter logistic model to calculate IC50 values, with at least two independent replicates were performed for each compound.

[2] = biological target: T2, KRAS G12V (Homo sapiens, UniProt P01116, G12V); assay: HTRF nucleotide exchange assay (NEA), KRAS G12V; settings: recombinant human KRAS aa1-188 G12V, 4 nM; 60 min compound incubation, EDA-GTP-DY647P1
T2 construct: 4 nM KRAS; aa1-188 containing the G12V, G12C, G12A or G12S amino acid substitution
T2 sequence (P01116 1-188 isoform P01116-2 G12V): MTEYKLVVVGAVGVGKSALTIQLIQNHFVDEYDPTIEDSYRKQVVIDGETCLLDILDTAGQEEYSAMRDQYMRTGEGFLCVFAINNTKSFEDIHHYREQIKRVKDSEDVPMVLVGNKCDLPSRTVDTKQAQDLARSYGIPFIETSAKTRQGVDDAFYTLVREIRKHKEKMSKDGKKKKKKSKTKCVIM
Method: as §1, §2

[3] = biological target: T3, KRAS G12D (Homo sapiens, UniProt P01116, G12D); assay: HTRF nucleotide exchange assay (NEA), KRAS G12D; settings: recombinant human KRAS aa1-188 G12D, 2 nM, 60 min compound incubation, EDA-GTP-DY647P1; for inhibition at 10 µM: 1 h
T3 construct: aa1-188 KRAS WT, HRAS WT, NRAS WT, or KRAS containing the containing the G12D, G13D or Q61H amino acid substitutions
T3 sequence (P01116 1-188 isoform P01116-2 G12D): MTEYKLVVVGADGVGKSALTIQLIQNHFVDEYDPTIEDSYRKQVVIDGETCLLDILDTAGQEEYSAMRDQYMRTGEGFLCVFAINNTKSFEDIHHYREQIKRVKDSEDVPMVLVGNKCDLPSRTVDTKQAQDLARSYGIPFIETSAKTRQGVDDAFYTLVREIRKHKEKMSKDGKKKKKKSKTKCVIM
Method: as §1, §2

[4] = biological target: T4, KRAS G12C (Homo sapiens, UniProt P01116, G12C); assay: HTRF nucleotide exchange assay (NEA), KRAS G12C; settings: recombinant human KRAS aa1-188 G12C, 4 nM; 60 min compound incubation, EDA-GTP-DY647P1
T4 construct: 4 nM KRAS; aa1-188 containing the G12V, G12C, G12A or G12S amino acid substitution
T4 sequence (P01116 1-188 isoform P01116-2 G12C): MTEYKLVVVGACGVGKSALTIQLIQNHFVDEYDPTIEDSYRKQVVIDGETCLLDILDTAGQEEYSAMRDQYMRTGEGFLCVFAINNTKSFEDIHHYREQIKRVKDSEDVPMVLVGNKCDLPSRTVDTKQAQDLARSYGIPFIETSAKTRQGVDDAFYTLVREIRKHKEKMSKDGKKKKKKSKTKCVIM
Method: as §1, §2

[5] = biological target: T5, KRAS Q61H (Homo sapiens, UniProt P01116, Q61H); assay: HTRF nucleotide exchange assay (NEA), KRAS Q61H; settings: recombinant human KRAS aa1-188 Q61H, 2 nM; 60 min compound incubation, EDA-GTP-DY647P1
T5 construct: aa1-188 KRAS WT, HRAS WT, NRAS WT, or KRAS containing the containing the G12D, G13D or Q61H amino acid substitutions
T5 sequence (P01116 1-188 isoform P01116-2 Q61H): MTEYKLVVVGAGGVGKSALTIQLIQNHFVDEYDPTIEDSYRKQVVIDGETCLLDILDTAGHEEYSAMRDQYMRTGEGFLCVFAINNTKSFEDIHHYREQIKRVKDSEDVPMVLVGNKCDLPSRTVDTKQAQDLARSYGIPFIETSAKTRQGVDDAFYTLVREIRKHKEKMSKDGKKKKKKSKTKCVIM
Method: as §1, §2

[6] = biological target: T6, KRAS G12S (Homo sapiens, UniProt P01116, G12S); assay: HTRF nucleotide exchange assay (NEA), KRAS G12S; settings: recombinant human KRAS aa1-188 G12S, 4 nM, 60 min compound incubation, EDA-GTP-DY647P1; for inhibition at 10 µM: 1 h
T6 construct: 4 nM KRAS; aa1-188 containing the G12V, G12C, G12A or G12S amino acid substitution
T6 sequence (P01116 1-188 isoform P01116-2 G12S): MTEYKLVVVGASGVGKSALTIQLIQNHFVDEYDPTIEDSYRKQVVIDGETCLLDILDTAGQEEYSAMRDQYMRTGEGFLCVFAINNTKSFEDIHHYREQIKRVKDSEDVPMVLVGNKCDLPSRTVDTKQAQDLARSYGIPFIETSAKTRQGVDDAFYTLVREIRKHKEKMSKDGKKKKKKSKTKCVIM
Method: as §1, §2

[7] = biological target: T7, KRAS WT (Homo sapiens, UniProt P01116); assay: HTRF nucleotide exchange assay (NEA), KRAS WT; settings: recombinant human KRAS WT aa1-188, 2 nM, 60 min compound incubation, EDA-GTP-DY647P1; for inhibition at 10 µM: 1 h
T7 construct: aa1-188 KRAS WT, HRAS WT, NRAS WT
T7 sequence (P01116 1-188 isoform P01116-2): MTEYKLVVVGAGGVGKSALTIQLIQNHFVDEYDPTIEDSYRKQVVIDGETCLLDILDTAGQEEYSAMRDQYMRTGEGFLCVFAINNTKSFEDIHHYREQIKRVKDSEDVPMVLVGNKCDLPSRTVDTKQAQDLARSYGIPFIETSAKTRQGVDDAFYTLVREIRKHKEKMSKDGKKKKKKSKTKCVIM
Method: as §1, §2

[8] = biological target: T8, KRAS G13D (Homo sapiens, UniProt P01116, G13D); assay: HTRF nucleotide exchange assay (NEA), KRAS G13D; settings: recombinant human KRAS aa1-188 G13D, 2 nM, 60 min compound incubation, EDA-GTP-DY647P1; for inhibition at 10 µM: 1 h
T8 construct: aa1-188 KRAS WT, HRAS WT, NRAS WT, or KRAS containing the containing the G12D, G13D or Q61H amino acid substitutions
T8 sequence (P01116 1-188 isoform P01116-2 G13D): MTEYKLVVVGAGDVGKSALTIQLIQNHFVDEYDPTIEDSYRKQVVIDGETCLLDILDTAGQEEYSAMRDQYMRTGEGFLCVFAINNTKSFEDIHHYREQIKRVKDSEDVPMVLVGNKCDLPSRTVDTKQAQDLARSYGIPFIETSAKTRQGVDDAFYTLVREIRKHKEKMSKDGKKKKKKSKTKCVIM
Method: as §1
The capacity of compounds to bind KRAS G12D, other KRAS mutants and wildtype RAS isoforms was quantified using a HTRF nucleotide exchange assay. […] After a 60-minute incubation at room temperature, Sul of 200 nM EDA-GTP-DY647P1 (diluted in assay buffer) was added to the plate. Following 30-minute incubation at room temperature, time-resolved fluorescence was measured on a PerkinElmer Envision plate reader. DMSO (0.3%) and unlabeled GDP (1 μM) or equivalent tool compound were used to generate the Max and Min assay signals, respectively. Data was analysed using a four-parameter logistic model to calculate IC50 values, with at least two independent replicates were performed for each compound.

SMILES	IC50 [1]	IC50 [2]	IC50 [3]	IC50 [4]	IC50 [5]	IC50 [6]	IC50 [7]	inhibition at 10 µM [8]	inhibition at 10 µM [3]	inhibition at 10 µM [7]	inhibition at 10 µM [6]	IC50 [8]
C#Cc1c(F)ccc2cc(O)cc(-c3ccc4c(N5CCCOCC5)nc(OC[C@@]56CCCN5C[C@H](F)C6)nc4c3C)c12 (racemic) [Example 6, rac-5-ethynyl-6-fluoro-4-[2-[[(2R,8S)-2-fluoro-1,2,3,5,6,7-hexahydropyrrolizin-8-yl]methoxy]-8-methyl-4-(1,4-oxazepan-4-yl)quinazolin-7-yl]naphthalen-2-ol]	< 10 nM	< 10 nM	< 10 nM	< 10 nM	< 10 nM	< 10 nM	< 10 nM	10 to 49%	–	–	–	–
N#Cc1cc2c(N3CCCOCC3)nc(OCC34CCCN3CCC4)nc2c(F)c1-c1cc(O)cc2ccccc12 [Example 27, 8-fluoro-2-(1,2,3,5,6,7-hexahydropyrrolizin-8-ylmethoxy)-7-(3-hydroxy-1-naphthyl)-4-(1,4-oxazepan-4-yl)quinazoline-6-carbonitrile]	100 to 10000 nM	10 to 100 nM	10 to 100 nM	10 to 100 nM	–	100 to 10000 nM	10 to 100 nM	–	–	–	–	–
Cc1c(-c2cc(O)cc3ccccc23)ccc2c(N3CCn4cncc4C3)nc(OCC34CCCN3CCC4)nc12 [Example 8, 4-[4-(6,8-dihydro-5H-imidazo[1,5-a]pyrazin-7-yl)-2-(1,2,3,5,6,7-hexahydropyrrolizin-8-ylmethoxy)-8-methyl-quinazolin-7-yl]naphthalen-2-ol]	–	–	–	–	–	–	–	–	10 to 49%	10 to 49%	10 to 49%	–
Cc1c(-c2cc(O)cc3ccccc23)ccc2c(N3CCSCC3)nc(OCC34CCCN3CCC4)nc12 [Example 3, 4-[2-(1,2,3,5,6,7-hexahydropyrrolizin-8-ylmethoxy)-8-methyl-4-thiomorpholino-quinazolin-7-yl]naphthalen-2-ol]	–	–	100 to 10000 nM	100 to 10000 nM	–	–	100 to 10000 nM	–	–	–	–	100 to 10000 nM
Cc1c(-c2cc(O)cc3ccccc23)ccc2c(N3CCCOCC3=O)nc(OCC34CCCN3CCC4)nc12 [Example 5, 4-[2-(1,2,3,5,6,7-hexahydropyrrolizin-8-ylmethoxy)-7-(3-hydroxy-1-naphthyl)-8-methyl-quinazolin-4-yl]-1,4-oxazepan-3-one]	–	–	–	–	–	–	–	10 to 49%	10 to 49%	10 to 49%	–	–
Cc1c(-c2cc(O)cc3ccccc23)ccc2c(N3CC4CCC(C3)N4)nc(OCC34CCCN3CCC4)nc12 [Example 1, 4-[4-(3,8-diazabicyclo[3.2.1]octan-3-yl)-2-(1,2,3,5,6,7-hexahydropyrrolizin-8-ylmethoxy)-8-methyl-quinazolin-7-yl]naphthalen-2-ol]	–	–	< 10 nM	100 to 10000 nM	–	–	100 to 10000 nM	10 to 49%	–	–	–	–
C#Cc1c(F)ccc2cc(O)cc(-c3ccc4c(N5CCCOCC5)nc(OC[C@@]56CCCN5C[C@H](F)C6)nc4c3F)c12 (racemic) [Example 26, 5-ethynyl-6-fluoro-4-[8-fluoro-4-(1,4-oxazepan-4-yl)-2-[[rac-(2R,8S)-2-fluoro-1,2,3,5,6,7-hexahydropyrrolizin-8-yl]methoxy]quinazolin-7-yl]naphthalen-2-ol]	< 10 nM	< 10 nM	< 10 nM	< 10 nM	–	< 10 nM	< 10 nM	–	–	–	–	–
COc1ccc(Cl)cc1-c1ccc2c(N3CCCOCC3)nc(OCC34CCCN3CCC4)nc2c1C [Example 16, 4-[7-(5-chloro-2-methoxy-phenyl)-2-(1,2,3,5,6,7-hexahydropyrrolizin-8-ylmethoxy)-8-methyl-quinazolin-4-yl]-1,4-oxazepane]	–	–	–	–	–	–	100 to 10000 nM	–	10 to 49%	–	–	–
Cc1c(-c2cc(O)cc3ccccc23)ccc2c(N3CCc4[nH]ncc4C3)nc(OCC34CCCN3CCC4)nc12 [Example 10, 4-[2-(1,2,3,5,6,7-hexahydropyrrolizin-8-ylmethoxy)-8-methyl-4-(1,4,6,7-tetrahydropyrazolo[4,3-c]pyridin-5-yl)quinazolin-7-yl]naphthalen-2-ol]	–	–	–	–	–	–	–	–	10 to 49%	10 to 49%	–	–

Other lines, results leading:

IC50 [1]	IC50 [2]	IC50 [3]	IC50 [4]	IC50 [5]	IC50 [6]	IC50 [7]	inhibition at 10 µM [8]	inhibition at 10 µM [3]	inhibition at 10 µM [7]	inhibition at 10 µM [6]	IC50 [8]	SMILES
10 to 100 nM	< 10 nM	10 to 100 nM	< 10 nM	10 to 100 nM	100 to 10000 nM	10 to 100 nM	–	–	–	–	–	Cc1c(-c2cccc3sc(N)c(C#N)c23)ccc2c(N3CCCOCC3)nc(OCC34CCCN3CCC4)nc12 [Example 22, 2-amino-4-[2-(1,2,3,5,6,7-hexahydropyrrolizin-8-ylmethoxy)-8-methyl-4-(1,4-oxazepan-4-yl)quinazolin-7-yl]benzothiophene-3-carbonitrile]
–	–	–	–	–	–	–	10 to 49%	10 to 49%	10 to 49%	–	–	Cc1c(-c2cc(O)cc3ccccc23)ccc2c(N3CCOCCC3=O)nc(OCC34CCCN3CCC4)nc12 [Example 4, 4-[2-(1,2,3,5,6,7-hexahydropyrrolizin-8-ylmethoxy)-7-(3-hydroxy-1-naphthyl)-8-methyl-quinazolin-4-yl]-1,4-oxazepan-5-one]
–	–	–	–	–	–	–	–	10 to 49%	10 to 49%	10 to 49%	–	Cc1c(-c2cc(O)cc3ccccc23)ccc2c(N3CCn4ccnc4C3)nc(OCC34CCCN3CCC4)nc12 [Example 9, 4-[4-(6,8-dihydro-5H-imidazo[1,2-a]pyrazin-7-yl)-2-(1,2,3,5,6,7-hexahydropyrrolizin-8-ylmethoxy)-8-methyl-quinazolin-7-yl]naphthalen-2-ol]
–	–	–	–	–	–	–	–	10 to 49%	10 to 49%	10 to 49%	–	Cc1c(-c2cc(O)cc3ccccc23)ccc2c(N3CCn4nccc4C3)nc(OCC34CCCN3CCC4)nc12 [Example 7]
–	100 to 10000 nM	100 to 10000 nM	100 to 10000 nM	100 to 10000 nM	–	100 to 10000 nM	10 to 49%	–	–	–	–	Cc1c(-c2cc(O)cc3ccccc23)ccc2c(N3CCCOCC3)nc(OCC34CCCN3CCC4)nc12 [Example 2, 4-[2-(1,2,3,5,6,7-hexahydropyrrolizin-8-ylmethoxy)-8-methyl-4-(1,4-oxazepan-4-yl)quinazolin-7-yl]naphthalen-2-ol]
< 10 nM	< 10 nM	< 10 nM	< 10 nM	10 to 100 nM	10 to 100 nM	< 10 nM	–	–	–	–	–	C#Cc1c(F)ccc2cc(O)cc(-c3ccc4c(N5CCCNC(=O)C5)nc(OC[C@@]56CCCN5C[C@H](F)C6)nc4c3C)c12 (racemic) [Example 24, 4-[7-(8-ethynyl-7-fluoro-3-hydroxy-1-naphthyl)-2-[[rac-(2R,8S)-2-fluoro-1,2,3,5,6,7-hexahydropyrrolizin-8-yl]methoxy]-8-methyl-quinazolin-4-yl]-1,4-diazepan-2-one]
